Reference: patent US20040209937A1, “Treatment of excessive osteolysis with indolinone compounds” (SUGEN, INC., priority 2003, published 2004)
“Also recorded” adds a separate entry of the source.

How the values were obtained:
[1] = system: osteoclast development; assay: Murine osteoclast development in vitro (bone marrow cells + M-CSF and RANKL, TRAP quantitation); assay type: cell-based, mice
Method: Bone marrow cells were isolated from female Balb/c mice and cultured either in medium alone or with addition of 10 ng/ml murine M-CSF and 100 ng/ml murine RANK ligand (RANKL) from day 0 to induce osteoclast development. […] Osteoclast development on day 7 was assessed by colorimetric quantitation of tartrate resistant acid phosphatase activity (TRAP) as well as counting TRAP positive cells with >3 nuclei.
TRAP staining and quantitation were performed at day 6.

[2] = system: serum pyridinoline (PYD); assay: Serum PYD ELISA in mice bearing 435/HAL-luc bone metastases (osteolysis); assay type: in vivo
Description: Athymic mice were inoculated with 3×10^6 435/HAL-luc cells into the left ventricle of the heart on day 0. Twenty days later, mice were imaged using the IVIS™ imaging system and placed into two matched groups of 16 mice based on photon emission, a measure of bioluminescence of the cancer. […] Mice were imaged approximately once a week. […] The femur, mandible and spines were collected from mice treated with either compound 1 or its vehicle, and fixed in Streck's Tissue Fixative prior to bone density scanning and histological analysis. Serum was also collected for measurement of collagen breakdown product pyridinoline (PYD) in the circulation.
Serum PYD ELISA: The parental breast carcinoma line MDA-MB-435, is very well characterized as having osteolytic activity (32). […] Serum samples were collected, aliquoted and frozen at −80° C. until analysis. Serum PYD was measured using a competitive enzyme immunoassay kit following the manufacturer's protocol (Serum PYD, Quidel 8019, San Diego, Calif.). Samples were measured in duplicate.

[3] = biological target: T1, human CSF1R (Homo sapiens, UniProt P07333); assay: CSF1R phosphorylation in 3T3-huCSF1R cells (p-CSF1R Western blot after M-CSF stimulation); assay type: cell-based; conditions: M-CSF stimulated, FIG. 1
T1 construct: expressed in transfected cells; host or cells: NIH3T3 (3T3-huCSF1R)
T1 sequence (P07333 20-972): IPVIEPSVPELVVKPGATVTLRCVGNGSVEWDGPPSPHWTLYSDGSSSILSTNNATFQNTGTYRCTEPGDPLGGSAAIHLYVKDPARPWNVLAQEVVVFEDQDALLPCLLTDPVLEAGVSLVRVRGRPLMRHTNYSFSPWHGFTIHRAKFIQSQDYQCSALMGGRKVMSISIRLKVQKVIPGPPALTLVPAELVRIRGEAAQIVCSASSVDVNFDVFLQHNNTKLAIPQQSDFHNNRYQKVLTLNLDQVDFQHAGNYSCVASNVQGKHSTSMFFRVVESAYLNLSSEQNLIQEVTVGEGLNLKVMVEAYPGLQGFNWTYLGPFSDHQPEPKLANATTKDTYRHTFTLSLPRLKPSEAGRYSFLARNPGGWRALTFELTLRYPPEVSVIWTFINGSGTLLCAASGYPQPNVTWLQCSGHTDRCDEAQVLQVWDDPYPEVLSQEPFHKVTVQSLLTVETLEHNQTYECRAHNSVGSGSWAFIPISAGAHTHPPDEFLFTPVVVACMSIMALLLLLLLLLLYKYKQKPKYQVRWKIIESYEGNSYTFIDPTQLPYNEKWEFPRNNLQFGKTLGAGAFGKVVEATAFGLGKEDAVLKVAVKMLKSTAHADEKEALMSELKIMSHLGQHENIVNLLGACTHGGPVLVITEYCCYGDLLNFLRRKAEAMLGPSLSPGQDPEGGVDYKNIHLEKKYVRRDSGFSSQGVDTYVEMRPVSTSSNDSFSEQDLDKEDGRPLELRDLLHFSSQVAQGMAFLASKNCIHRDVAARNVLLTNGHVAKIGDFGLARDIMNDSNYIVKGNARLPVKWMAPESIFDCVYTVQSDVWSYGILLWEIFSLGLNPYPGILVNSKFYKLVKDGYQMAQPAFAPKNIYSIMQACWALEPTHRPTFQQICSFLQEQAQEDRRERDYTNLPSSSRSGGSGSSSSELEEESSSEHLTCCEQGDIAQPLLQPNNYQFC
Method: Cells were lysed immediately after stimulation and lysates spun at 4° C. for 20 mins. Supernatant was transferred to new microfuge tubes. For each sample, 500 μg of total protein was immunoprecipitated overnight with a rabbit polyclonal antibody to bead-conjugated human CSF1R (Santa Cruz Biotechnology, CA). A p-CSF1R Western blot was then performed, using anti-phospho-CSF1R (Tyr723) antibody (Cell Signaling Technology, Beverly, Mass.) at 1:1000 dilution.

[4] = system: 435/HAL-luc breast cancer bone metastases; assay: 435/HAL-luc experimental bone metastasis model, bioluminescence imaging of tumor growth; assay type: in vivo, mice
Method: The MDA-MB-435-HAL-luc breast cancer xenograft model was used to confirm significant inhibition of the growth of breast cancer bone metastases. The presence of live tumor cells was monitored by bioluminescence imaging with the Xenogen IVIS™ system.
The human breast carcinoma cell line 435/HAL was obtained (Pharmacia Corp., St. Louis, Mo.). […] Stable transfection of 435/HAL cells with luciferase (light emitting enzyme of firefly Photinus pyralis) was then performed. The cells were cotransfected with pGL3-control (Promega, Madison, Wis.) and pTK-Hygro (Clontech, Palo Alto, Calif.) at a 1:4 ratio using Lipofectamine 2000 (Invitrogen, Carlsbad, Calif.). Cells were maintained in Hygromycin (200 μg/ml) (Invitrogen) and resistant colonies isolated by ring cloning. Hygro-resistant colonies were screened for luciferase expression using Promega brite-glo reagent, normalized as RLU/μg protein. A subclone with the highest luciferase activity was selected, which we refer to as ‘435/HAL-luc.’ […]
Mice were injected intraperitoneally with 150 mg/kg of luciferin (Xenogen Corp., Alameda, Calif.), followed by anesthetization with Ketamine/Xylazine five minutes later. […] Briefly, mice were placed on the temperature-controlled bed of the imaging chamber and a gray-scale whole body image of the ventral side of the mice was captured, followed by an overlay of a bioluminescence map representing the spatial distribution of photons detected from cleaved luciferin in the cancer cells expressing luciferase. […] The bioluminescent signal was quantified by counting the pixels within the area drawn around each site of photon emission, using a customized version of the IGOR Pro version 4.0 Software (WaveMetrics, Inc., Lake Oswego, Oreg.) called Living Image version 2.11 (Xenogen Corporation, Alameda, Calif.). The sum of all detected photon counts within a region of interest containing the entire cancer lesion was determined. For evaluation of tumor growth inhibition, the Student's t test was used to assess differences in photon emission readings between treated and control groups (p<0.05 was considered significant). […]

CCN(CC)CCNC(=O)c1c(C)[nH]c(C=C2C(=O)Nc3ccc(F)cc32)c1C [compound 1, 5-(5-Fluoro-2-oxo-1,2-dihydro-indol-3-ylidenemethyl)-2,4-dimethyl-1H-pyrrole-3-carboxylic acid (2-diethylamino-ethyl)-amide]
effect of time of addition of compound (D0, D2 or D4) on osteoclast development ([1]; 100 nM and 10 nM, TRAP at day 6, FIG. 2b): the later precursor cells are exposed to compound 1, the less inhibitory effect the compound exhibits; also recorded: inhibits an early stage of osteoclast development, but not later stages | concentrations at which development of osteoclasts is inhibited ([1]; Balb/c bone marrow cells, M-CSF 10 ng/ml + RANKL 100 ng/ml, day 7, TRAP, FIG. 2a): 10 to 100 nM | inhibition of osteoclast development ([1]; in vitro, FIG. 2a): inhibits osteoclast development in a dose-dependent manner | serum PYD mean value ([2]; 80 mg per kg): 1.3 ± 0.16 ng/mL | reduction of serum PYD levels compared to vehicle treated mice ([2]; 14 compound 1 treated vs 12 vehicle treated mice, p=0.047): 30% | osteolysis as measured by pyridinoline levels ([2]; mice with breast cancer metastases to bone, FIG. 4): less osteolysis | inhibition of CSF1R phosphorylation [3]: inhibits CSF1R phosphorylation in a dose-dependent manner; also recorded: inhibits phosphorylation of M-CSF receptors | live tumor / growth of breast cancer metastases by bioluminescence imaging ([4]; MDA-MB-435-HAL-luc xenograft model): significant reduction in live tumor; also recorded: inhibits the growth of breast cancer metastases | photon count emission from the mouse bones ([4]; at both doses (80 or 40 mg per kg once daily by gavage), FIG. 3): greatly decreased | inhibition of tumor growth in bone (photon emission, long bones and mandibles) ([4]; day 41, 80 or 40 mg per kg once daily by gavage, p=0.001): 89%
